Patent US10392368B2, “Pyrazolo and triazolo bicyclic compounds as JAK kinase inhibitors” (THERAVANCE BIOPHARMA R&D IP, LLC, priority 2017, dated 2019)
Where two headings read alike, the source gives them in different places.

Key:
JAK2 = molecular target: T1, JAK2 (Homo sapiens, UniProt O60674); assay: Biochemical JAK2 kinase assay (LanthaScreen); details: for Ki: read-out: JAK 2 (pKi) (converted)
T1 construct: GST; purchased Life Technologies
Method in brief: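 GST-tagged recombinant JAK2 pre-incubated 1 h at ambient temperature with compound and GFP-STAT1 peptide in HEPES pH 7.5/MgCl2 buffer, then ATP added for a 1 h reaction with 1% DMSO. TR-FRET read after EDTA and Tb-anti-pSTAT1 (pTyr701) addition; IC50 from 4-parameter fit, converted to pKi by Cheng-Prusoff.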

JAK3 = molecular target: T2, JAK3 (Homo sapiens, UniProt P52333); assay: Biochemical JAK3 kinase assay (LanthaScreen); design: GST; purchased Life Technologies; details: for Ki: read-out: JAK 3 (pKi) (converted)
T2 sequence (P52333 1-1124): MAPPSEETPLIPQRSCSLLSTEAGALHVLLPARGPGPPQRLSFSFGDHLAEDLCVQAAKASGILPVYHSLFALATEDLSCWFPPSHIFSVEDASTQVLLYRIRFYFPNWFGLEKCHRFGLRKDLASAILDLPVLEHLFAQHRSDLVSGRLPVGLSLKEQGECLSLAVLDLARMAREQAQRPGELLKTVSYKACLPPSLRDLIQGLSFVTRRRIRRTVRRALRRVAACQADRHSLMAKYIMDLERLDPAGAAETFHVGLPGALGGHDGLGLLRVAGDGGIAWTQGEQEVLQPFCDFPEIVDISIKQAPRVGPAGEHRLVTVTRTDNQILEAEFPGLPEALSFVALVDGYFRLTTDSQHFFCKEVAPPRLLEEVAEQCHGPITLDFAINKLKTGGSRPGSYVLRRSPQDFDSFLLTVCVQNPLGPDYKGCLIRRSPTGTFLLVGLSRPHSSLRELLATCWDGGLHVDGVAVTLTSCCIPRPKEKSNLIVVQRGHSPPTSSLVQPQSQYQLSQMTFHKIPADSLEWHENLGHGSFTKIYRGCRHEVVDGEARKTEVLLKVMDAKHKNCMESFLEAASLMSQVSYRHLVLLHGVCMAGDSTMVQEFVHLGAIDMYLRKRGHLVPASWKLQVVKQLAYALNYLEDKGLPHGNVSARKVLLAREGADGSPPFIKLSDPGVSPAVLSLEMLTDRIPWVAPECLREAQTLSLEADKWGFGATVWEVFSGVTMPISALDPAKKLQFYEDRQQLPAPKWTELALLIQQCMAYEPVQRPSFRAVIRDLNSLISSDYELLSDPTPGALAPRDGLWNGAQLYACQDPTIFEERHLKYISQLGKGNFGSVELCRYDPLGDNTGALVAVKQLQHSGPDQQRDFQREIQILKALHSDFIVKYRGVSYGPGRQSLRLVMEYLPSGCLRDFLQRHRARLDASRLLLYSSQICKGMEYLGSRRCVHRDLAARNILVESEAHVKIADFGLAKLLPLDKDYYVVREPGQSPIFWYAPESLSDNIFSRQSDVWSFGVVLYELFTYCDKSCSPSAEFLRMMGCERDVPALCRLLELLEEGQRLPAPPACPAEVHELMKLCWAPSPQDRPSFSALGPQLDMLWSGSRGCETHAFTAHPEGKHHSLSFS
Method in brief: (§1)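 Values are pKi, calculated by Cheng-Prusoff from IC50 obtained by robust 4-parameter fitting of percent inhibition. The kinase reaction used GFP-STAT1 peptide in HEPES pH 7.5 buffer with MgCl2, EGTA and Brij-35, ATP-initiated after compound pre-incubation, 1 h at ambient temperature.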

[1] = system: IL-2 stimulated pSTAT5 in Tall-1 T cells; assay: Cellular JAK3 potency assay: inhibition of IL-2 stimulated pSTAT5 in Tall-1 T cells; type: cell-based, human; details: for IC50: Homo sapiens, read-out: Tall-1 (pIC50) (converted)
Method in brief: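 Tall-1 human T cells (45,000/well) in phenol red-free DMEM with 10% FBS were preincubated with compound 1 h at 37 °C, then stimulated with IL-2 (final 300 ng/ml) for 30 min. Lysate pSTAT5 read by AlphaLisa; IC50 from inhibition curves, reported as pIC50 (mean±SD).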

JAK1 = molecular target: T3, JAK1 (Homo sapiens, UniProt P23458); assay: Biochemical JAK1 kinase assay (LanthaScreen); details: for Ki: read-out: JAK 1 (pKi) (converted)
T3 construct: GST; purchased Life Technologies
T3 sequence (P23458 whole entry): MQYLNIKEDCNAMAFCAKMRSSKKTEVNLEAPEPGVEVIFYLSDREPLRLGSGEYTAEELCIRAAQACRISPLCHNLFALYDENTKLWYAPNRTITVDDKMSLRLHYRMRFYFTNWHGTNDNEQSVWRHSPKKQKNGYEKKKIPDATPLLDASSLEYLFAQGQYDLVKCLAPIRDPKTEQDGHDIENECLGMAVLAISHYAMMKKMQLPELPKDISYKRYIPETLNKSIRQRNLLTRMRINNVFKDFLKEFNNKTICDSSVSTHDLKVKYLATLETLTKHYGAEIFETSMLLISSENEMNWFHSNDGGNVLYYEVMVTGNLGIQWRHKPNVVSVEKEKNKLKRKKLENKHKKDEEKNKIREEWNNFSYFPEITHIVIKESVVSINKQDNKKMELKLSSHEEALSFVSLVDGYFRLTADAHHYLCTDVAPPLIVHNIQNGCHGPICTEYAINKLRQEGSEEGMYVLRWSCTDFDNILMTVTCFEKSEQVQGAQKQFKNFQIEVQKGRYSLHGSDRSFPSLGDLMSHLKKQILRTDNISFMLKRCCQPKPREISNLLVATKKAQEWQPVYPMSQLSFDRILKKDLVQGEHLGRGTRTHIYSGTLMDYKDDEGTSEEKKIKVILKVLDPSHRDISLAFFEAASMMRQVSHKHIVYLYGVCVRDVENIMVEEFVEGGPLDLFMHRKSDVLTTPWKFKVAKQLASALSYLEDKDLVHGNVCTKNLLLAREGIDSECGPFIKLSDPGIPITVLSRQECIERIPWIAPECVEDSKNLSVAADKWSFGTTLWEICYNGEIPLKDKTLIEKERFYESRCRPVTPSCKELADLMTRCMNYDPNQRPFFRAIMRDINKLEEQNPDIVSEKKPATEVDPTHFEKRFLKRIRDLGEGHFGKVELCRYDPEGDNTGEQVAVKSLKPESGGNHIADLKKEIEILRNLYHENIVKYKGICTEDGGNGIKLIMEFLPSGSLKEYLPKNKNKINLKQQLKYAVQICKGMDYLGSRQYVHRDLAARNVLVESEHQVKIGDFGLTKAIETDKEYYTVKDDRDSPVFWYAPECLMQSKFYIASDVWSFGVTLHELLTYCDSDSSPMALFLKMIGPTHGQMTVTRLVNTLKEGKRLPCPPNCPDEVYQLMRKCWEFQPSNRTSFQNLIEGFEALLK
Method in brief: as §1

Tyk2 = molecular target: T4, Tyk2 (Homo sapiens, UniProt P29597); assay: Biochemical Tyk2 kinase assay (LanthaScreen); details: for Ki: read-out: Tyk 2 (pKi) (converted)
T4 construct: GST; purchased Life Technologies
T4 sequence (P29597 whole entry): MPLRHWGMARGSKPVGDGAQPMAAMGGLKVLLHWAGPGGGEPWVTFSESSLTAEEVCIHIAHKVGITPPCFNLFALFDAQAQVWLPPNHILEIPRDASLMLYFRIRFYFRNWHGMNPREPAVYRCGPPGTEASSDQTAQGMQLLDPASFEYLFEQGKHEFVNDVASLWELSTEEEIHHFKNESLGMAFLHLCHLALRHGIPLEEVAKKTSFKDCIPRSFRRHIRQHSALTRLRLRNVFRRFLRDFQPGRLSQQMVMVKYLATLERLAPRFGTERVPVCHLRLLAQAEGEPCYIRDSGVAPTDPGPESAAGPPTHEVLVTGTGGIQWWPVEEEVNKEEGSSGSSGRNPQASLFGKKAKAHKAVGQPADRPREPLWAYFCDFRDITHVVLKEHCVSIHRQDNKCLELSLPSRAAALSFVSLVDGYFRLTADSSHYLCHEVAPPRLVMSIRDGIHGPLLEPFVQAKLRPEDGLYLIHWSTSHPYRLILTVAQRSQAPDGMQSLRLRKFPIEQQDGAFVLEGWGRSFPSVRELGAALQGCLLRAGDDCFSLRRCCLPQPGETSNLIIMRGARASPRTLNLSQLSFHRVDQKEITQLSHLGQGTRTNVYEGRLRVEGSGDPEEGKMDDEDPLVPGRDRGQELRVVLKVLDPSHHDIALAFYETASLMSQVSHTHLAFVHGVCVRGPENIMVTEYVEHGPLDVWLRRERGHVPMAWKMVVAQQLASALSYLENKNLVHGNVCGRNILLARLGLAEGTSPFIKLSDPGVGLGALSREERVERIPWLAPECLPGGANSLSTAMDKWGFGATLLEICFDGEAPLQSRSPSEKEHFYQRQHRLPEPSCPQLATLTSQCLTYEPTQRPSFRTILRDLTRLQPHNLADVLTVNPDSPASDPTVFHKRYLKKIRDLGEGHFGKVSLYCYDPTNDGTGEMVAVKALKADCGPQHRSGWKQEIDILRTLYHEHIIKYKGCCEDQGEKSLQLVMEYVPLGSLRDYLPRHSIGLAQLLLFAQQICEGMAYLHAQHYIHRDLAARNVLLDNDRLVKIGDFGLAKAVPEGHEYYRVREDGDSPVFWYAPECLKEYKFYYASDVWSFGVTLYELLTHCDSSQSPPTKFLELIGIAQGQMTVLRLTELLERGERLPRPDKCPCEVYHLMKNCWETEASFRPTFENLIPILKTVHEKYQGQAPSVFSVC
Method in brief: as §1

[2] = selectivity JAK3 over JAK1, difference of pKi
[3] = IL-2 stimulated pSTAT5, Tall-1 T cells
[4] = selectivity: difference of pKi JAK3 and pKi JAK1
[5] = TALL-1, IL-2 stimulated pSTAT5 in Tall-1 T cells
[6] = IL-2 stimulated pSTAT5 in Tall-1 T cells
[7] = TALL-1, IL-2 stimulated pSTAT5, Tall-1 T cells

T1 sequence (O60674 whole entry): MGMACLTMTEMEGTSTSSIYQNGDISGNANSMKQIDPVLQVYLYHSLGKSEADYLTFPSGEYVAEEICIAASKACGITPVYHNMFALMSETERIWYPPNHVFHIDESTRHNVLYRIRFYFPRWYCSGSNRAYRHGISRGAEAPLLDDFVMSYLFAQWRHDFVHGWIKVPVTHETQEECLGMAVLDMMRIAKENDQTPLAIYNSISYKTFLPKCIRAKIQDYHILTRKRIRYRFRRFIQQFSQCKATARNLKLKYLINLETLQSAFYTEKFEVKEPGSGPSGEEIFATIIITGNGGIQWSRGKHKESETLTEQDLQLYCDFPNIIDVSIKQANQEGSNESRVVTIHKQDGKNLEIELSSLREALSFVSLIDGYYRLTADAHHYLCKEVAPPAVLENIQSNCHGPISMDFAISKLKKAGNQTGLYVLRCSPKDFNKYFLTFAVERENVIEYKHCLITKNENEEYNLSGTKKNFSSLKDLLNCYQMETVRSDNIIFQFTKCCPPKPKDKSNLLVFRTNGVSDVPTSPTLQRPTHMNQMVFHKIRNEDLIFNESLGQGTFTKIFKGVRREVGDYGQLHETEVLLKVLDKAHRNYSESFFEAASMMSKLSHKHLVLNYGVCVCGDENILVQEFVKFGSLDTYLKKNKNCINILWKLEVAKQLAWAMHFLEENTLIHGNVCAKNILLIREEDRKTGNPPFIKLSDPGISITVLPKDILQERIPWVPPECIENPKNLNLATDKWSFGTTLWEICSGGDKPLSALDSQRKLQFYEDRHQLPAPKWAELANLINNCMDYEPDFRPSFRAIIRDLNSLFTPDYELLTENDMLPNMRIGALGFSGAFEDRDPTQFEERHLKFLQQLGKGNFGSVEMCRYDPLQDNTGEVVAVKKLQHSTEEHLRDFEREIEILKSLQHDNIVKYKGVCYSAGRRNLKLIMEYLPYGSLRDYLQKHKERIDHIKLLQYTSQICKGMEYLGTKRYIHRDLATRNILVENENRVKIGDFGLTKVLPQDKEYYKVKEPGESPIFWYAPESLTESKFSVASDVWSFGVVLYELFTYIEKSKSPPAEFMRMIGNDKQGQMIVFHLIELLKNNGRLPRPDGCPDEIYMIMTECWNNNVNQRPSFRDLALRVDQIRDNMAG

SMILES | JAK 2 (pKi) (JAK2) | JAK 3 (pKi) (JAK3) | JAK3 (pKi)-JAK1 (pKi) (JAK3; [2]) | Tall-1 (pIC50) [1, 3] | JAK 1 (pKi) (JAK1) | Tyk 2 (pKi) (Tyk2) | Ki (JAK2) [nM] | Ki (JAK3) [nM] | JAK3 (pKi)-JAK1 (pKi) (JAK3; [4]) | IC50 [1, 5] [nM] | Ki (JAK1) [nM] | Ki (Tyk2) [nM] | Tall-1 (pIC50) [1, 6] | IC50 [1, 7] [nM]
C=CC(=O)N1CCO[C@@H](C(=O)Nc2cc(-c3ccc(O)cc3)nc3[nH]ncc23)C1 [Compound 13-19] | E (a pKi value of 7 or below (Ki of 100 nM or above)) | A (a pKi value≥10 (Ki≤0.1 nM)) | A (a value of 3 or above) | B (a pIC50 value between 6.7 (included) and 7.5 (IC50 between 200 nM and 32 nM)) | E (a pKi value of 7 or below (Ki of 100 nM or above)) | E (a pKi value of 7 or below (Ki of 100 nM or above)) | – | – | – | – | – | – | – | –
CCSCCNC/C=C/C(=O)N1CC(COc2cc(-c3ccc(O)cc3)cc3[nH]ncc23)C1 [Compound 3-126] | – | – | – | – | – | – | 10 to 100 | < 0.1 | A (a value of 3 or above) | 200 to 1000 | > 100 | > 100 | – | –
C=CC(=O)N1CCCC(Oc2cc(-c3ccc(O)c(Cl)c3)cc3[nH]ncc23)C1 (stereo not drawn) [Compound 8-3] | D (a pKi value between 7 and 8 (Ki between 100 nM and 10 nM)) | B (a pKi value between 9 and 10 (Ki between 1 nM and 0.1 nM)) | A (a value of 3 or above) | A (a pIC50 value≥7.5 (IC50≤32 nM)) | E (a pKi value of 7 or below (Ki of 100 nM or above)) | E (a pKi value of 7 or below (Ki of 100 nM or above)) | – | – | – | – | – | – | – | –
C=CC(=O)N1CC(CSc2cc(-c3ccc(O)cc3)nc3[nH]ncc23)C1 [Compound 13-9] | E (a pKi value of 7 or below (Ki of 100 nM or above)) | B (a pKi value between 9 and 10 (Ki between 1 nM and 0.1 nM)) | A (a value of 3 or above) | B (a pIC50 value between 6.7 (included) and 7.5 (IC50 between 200 nM and 32 nM)) | E (a pKi value of 7 or below (Ki of 100 nM or above)) | E (a pKi value of 7 or below (Ki of 100 nM or above)) | – | – | – | – | – | – | – | –
C=CC(=O)N1C[C@@H](Oc2cc(-c3ccc(O)cc3)nc3[nH]ncc23)C[C@H]1C [Compound 1-26] | – | – | – | – | – | – | > 100 | < 0.1 | A (a value of 3 or above) | 31.6 to 200 | > 100 | > 100 | – | –
C=CC(=O)N1CC(Nc2cc(-c3ccc(O)cc3)cc3[nH]ncc23)C1 [Compound 5-7] | D (a pKi value between 7 and 8 (Ki between 100 nM and 10 nM)) | A (a pKi value≥10 (Ki≤0.1 nM)) | – | – | E (a pKi value of 7 or below (Ki of 100 nM or above)) | E (a pKi value of 7 or below (Ki of 100 nM or above)) | – | – | A (a value of 3 or above) | – | – | – | B (a pIC50 value between 6.7 (included) and 7.5 (IC50 between 200 nM and 32 nM)) | –
C=CC(=O)N1CC[C@H](COc2nc(-c3ccc(O)c(F)c3)cc3[nH]ncc23)C1 [Compound 2-10] | D (a pKi value between 7 and 8 (Ki between 100 nM and 10 nM)) | B (a pKi value between 9 and 10 (Ki between 1 nM and 0.1 nM)) | – | – | E (a pKi value of 7 or below (Ki of 100 nM or above)) | E (a pKi value of 7 or below (Ki of 100 nM or above)) | – | – | A (a value of 3 or above) | – | – | – | A (a pIC50 value≥7.5 (IC50≤32 nM)) | –
C=CC(=O)N1CC(COc2cc(-c3ccc(O)cc3)cc3[nH]nc(C(F)(F)F)c23)C1 [Compound 18-13] | – | – | A (a value of 3 or above) | – | – | – | 10 to 100 | < 0.1 | – | – | > 100 | > 100 | – | < 31.6
CN(C)C/C=C/C(=O)N1CC(C#N)(COc2cc(-c3ccc(O)c(Cl)c3)cc3[nH]ncc23)C1 [Compound 3-21] | – | – | – | – | – | – | > 100 | 0.1 to 1 | A (a value of 3 or above) | < 31.6 | > 100 | > 100 | – | –
C=CC(=O)N1CC[C@H](Oc2cc(-c3ccc(O)cc3)cc3[nH]ncc23)C[C@H]1C [Compound 12-32] | – | – | A (a value of 3 or above) | – | – | – | 10 to 100 | < 0.1 | – | – | > 100 | > 100 | – | < 31.6
COC1CCN(C/C=C/C(=O)N2CC(COc3cc(-c4ccc(O)cc4)cc4[nH]ncc34)C2)CC1 [Compound 3-127] | – | – | – | – | – | – | 10 to 100 | < 0.1 | A (a value of 3 or above) | 31.6 to 200 | > 100 | > 100 | – | –
C[C@@H]1C[C@H](Oc2cc(-c3ccc(O)cc3)cc3[nH]ncc23)CCN1C(=O)/C=C/CN(C)C [Compound 12-28] | – | – | A (a value of 3 or above) | – | – | – | 1 to 10 | < 0.1 | – | – | > 100 | > 100 | – | 31.6 to 200
C=CC(=O)N1CC[C@H](COc2nc(-c3ccc(O)c(F)c3)nc3[nH]ncc23)C1 [Compound 2-15] | E (a pKi value of 7 or below (Ki of 100 nM or above)) | A (a pKi value≥10 (Ki≤0.1 nM)) | – | – | E (a pKi value of 7 or below (Ki of 100 nM or above)) | E (a pKi value of 7 or below (Ki of 100 nM or above)) | – | – | A (a value of 3 or above) | – | – | – | B (a pIC50 value between 6.7 (included) and 7.5 (IC50 between 200 nM and 32 nM)) | –
CN(C)C/C=C/C(=O)N1CC(CN(C)c2cc(-c3ccc(O)c(Cl)c3)cc3[nH]ncc23)C1 [Compound 4-4] | E (a pKi value of 7 or below (Ki of 100 nM or above)) | A (a pKi value≥10 (Ki≤0.1 nM)) | – | – | E (a pKi value of 7 or below (Ki of 100 nM or above)) | E (a pKi value of 7 or below (Ki of 100 nM or above)) | – | – | A (a value of 3 or above) | – | – | – | B (a pIC50 value between 6.7 (included) and 7.5 (IC50 between 200 nM and 32 nM)) | –
